The subject of test [1] is Klebsiella pneumoniae ATCC-BAA 2470. Briefly: Mouse thigh muscle infection model, Klebsiella pneumoniae ATCC-BAA 2470. In kind it is in vivo. The note with it: immunodeficient female CD-1 mice; Klebsiella pneumoniae ATCC-BAA 2470 9.5E+06 CFU/mouse; 200 mg/kg every 2 h from 2 h; end point 24 h. The method, then: 15 female CD-1 mice were divided into 5 cages, 3 mice per cage; the day of infection was counted as day 0.
Immunosuppressant cyclophosphamide 150 mg/kg were injected intraperitoneally on Day-4, and immunosuppressant cyclophosphamide 100 mg/kg was injected intraperitoneally again on the first day to obtain immunodeficient mice.
The strain Klebsiella pneumoniae ATCC-BAA 2470 was recovered on an MHA plate on the first day. The recovered colonies were picked and dissolved in sterile saline to prepare bacterial solution with a concentration of 9.5E+07 CFU/mL for use in mouse thigh muscle infection. The infection starting time was counted as 0 h, and 100 μL of bacterial solution is injected into the thigh muscle of each mouse at 0 h, that is, the inoculation amount is 9.5E+06 CFU/mouse. 2 h after infection, the drugs were administered according to the experimental scheme. The specific experimental scheme is as follows (see Table 5): […]
(2) 2 h after infection: Mice in the second to third cages were administered separately at a volume of 10 mL/kg according to the mouse body weight. […] The amount of bacteria loaded in the thigh muscle tissue of the mouse was counted, and the experimental results were shown in Table 6.

The subject of test [2] is Klebsiella pneumonia ATCC BAA-205 (TEM-1/SHV-1/SHV-12). Briefly: MIC, micro-liquid dilution (CLSI). Particulars: Klebsiella pneumoniae, ATCCBAA205; K. pneumonia ATCC BAA-205, Class A (TEM-1/SHV-1/SHV-12); 20-24 h, 37° C. In kind it is cell-based. The protocol:
(§1) Three strains of Klebsiella pneumonia, ATCC BAA-205 (TEM-1/SHV-1/SHV-12), ATCC BAA-1705 (KPC-2), ATCC BAA-2470 (NDM-1), Enterobacter cloacae ATCC BAA-1143 (AmpC), two strains of Escherichia coli ATCC BAA-2523 (OXA-48), ATCC 25922 were used to determine the minimum inhibitory concentration (MIC) of each of the compounds by micro-liquid dilution method according to the Institute of Clinical and Laboratory Standard (CLSI) requirements. […]. The plate was placed upside down at 37° C. and the MIC value was read after 20-24 h of incubation, and the lowest drug concentration that inhibited the growth of bacteria was set as MIC. Colony-Forming Units (CFU) refer to the total number of bacterial colonies per unit volume.

Test [3] relates to Klebsiella pneumonia ATCC BAA-2470 (NDM-1). The experiment in a line: MIC, micro-liquid dilution (CLSI). In kind it is cell-based. Particulars: Klebsiella pneumoniae, ATCCBAA2470; K. pneumonia ATCC BAA-2470, Class B (NDM-1); 20-24 h, 37° C. The method, then: as §1
The subject of test [4] is Klebsiella pneumonia ATCC BAA-1705 (KPC-2). The experiment in a line: MIC, micro-liquid dilution (CLSI). In kind it is cell-based. Particulars: Klebsiella pneumoniae, ATCCBAA1705; K. pneumonia ATCC BAA-1705, Class A (KPC-2); 20-24 h, 37° C. The protocol:
as §1

Test [5] deals with Escherichia coli ATCC BAA-2523 (OXA-48). Briefly: MIC, micro-liquid dilution (CLSI). Particulars: ATCCBAA2523. The class given is cell-based. The protocol:
as §1

Test [6] relates to Escherichia coli ATCC 25922. Briefly: MIC, micro-liquid dilution (CLSI). Particulars: ATCC25922, E. coli ATCC 25922, 20-24 h, 37° C. In kind it is cell-based. The protocol: as §1
The test system of test [7] is Enterobacter cloacae ATCC BAA-1143 (AmpC). The experiment in a line: MIC, micro-liquid dilution (CLSI). The class given is cell-based. Particulars: ATCCBAA1143, E. cloacae ATCC BAA-1143, Class C (AmpC), 20-24 h, 37° C. The method, then:
as §1

The subject of test [8] is clinically isolated carbapenem-resistant enterobacteriaceae. In kind it is cell-based. The note with it: single drug; panel of 26 strains of Table 2. The protocol: (§2) The minimum inhibitory concentration (MIC) of the compound and combination with β-lactamase (MBLs) inhibitors against clinically isolated carbapenem-resistant enterobacteriaceae was determined by the two-fold agar dilution method to determine the activity of the compound to be tested against strains producing MBLs. […] The mother liquor was diluted to the concentration to be tested by double dilution method, an inoculum liquid was prepared by direct bacterial suspension method, 1 mL of the prepared bacteria solution was withdrawn and putted into the inoculation tube, and a positioning needle and an inoculation needle were installed. A bacterial multi-point inoculator was started for inoculation. After the bacterial solution was absorbed by the agar, the plate was placed upside down in an incubator at 37° C. for 16-20 hours, and the results were observed. The average of three tests was taken.

The next test has as its system E.coli CRE18. Briefly: MIC, two-fold agar dilution, clinical isolate. In kind it is cell-based. The note with it: Escherichia coli; E.coli CRE18; single drug; average of three tests; read-out: MIC. The protocol:
The minimum inhibitory concentration (MIC) of the compound and combination with β-lactamase (MBLs) inhibitors against clinically isolated carbapenem-resistant enterobacteriaceae was determined by the two-fold agar dilution method to determine the activity of the compound to be tested against strains producing MBLs. Antibiotics and enzyme inhibitors were weighed separately and dissolved in sterile ultrapure water or dimethyl sulfoxide to prepare mother liquor, MHA medium was prepared, pH was adjusted to 7.2-7.4, and it was sterilized at 121° C. for 15 minutes and placed in a 55° C. water bath for heat preservation. The mother liquor was diluted to the concentration to be tested by double dilution method, an inoculum liquid was prepared by direct bacterial suspension method, 1 mL of the prepared bacteria solution was withdrawn and putted into the inoculation tube, and a positioning needle and an inoculation needle were installed. A bacterial multi-point inoculator was started for inoculation. After the bacterial solution was absorbed by the agar, the plate was placed upside down in an incubator at 37° C. for 16-20 hours, and the results were observed. The average of three tests was taken.
(In general: In agar dilution, organisms are placed on agar that contains the substance at set levels.)

In a further test the test system is E.coli 115105. Briefly: MIC, two-fold agar dilution, clinical isolate. The class given is cell-based. The note with it: Escherichia coli, single drug, average of three tests. The method, then:
as §2

For the next test, the system named is K.p HX30. Briefly: MIC, two-fold agar dilution, clinical isolate. The note with it: K.p HX30; single drug; average of three tests; read-out: MIC. The class given is cell-based. The method, then: as §2
The test system of another test is E.coli 115101. The experiment in a line: MIC, two-fold agar dilution, clinical isolate. In kind it is cell-based. Particulars: Escherichia coli; E.coli 115101; single drug; average of three tests; read-out: MIC. The protocol:
as §2

Values after ≈ are worked out from the molar mass of the structure shown.

Turning to `NC[C@@H]1CN(C[C@@H]2[C@H](NC(=O)/C(=N\OC3(C(=O)O)CC3)c3csc(N)n3)C(=O)N2S(=O)(=O)O)S(=O)(=O)N1` [Compound 4], the “Average CFU of the mouse (amount of bacteria loaded in thigh muscle tissue)” value in test [1] worked out at 3.93E+06 CFU/mouse. For the same compound, the MIC amounted to 0.5 µg/mL (≈ 0.858 µM) in test [2]; 0.25 µg/mL (≈ 0.429 µM) in test [3]; 1 µg/mL (≈ 1.72 µM) in test [4]; 0.125 µg/mL (≈ 0.215 µM) in test [5]; 0.25 µg/mL (≈ 0.429 µM) in [6]; 0.5 µg/mL (≈ 0.858 µM) in test [7]. The MIC with E.coli CRE18 stood at 1 µg/mL; in the test with E.coli 115105 it was 1 µg/mL; in the test on K.p HX30 it was 0.5 µg/mL; with E.coli 115101 it was 0.5 µg/mL. Also, the MIC50 in [8] came out at 0.125 µg/mL. Also, the MIC90 in test [8] amounted to 1 µg/mL.

The term MIC denotes the lowest concentration that inhibits growth of the organism. As a reminder, the MIC50 is the lowest concentration that inhibits either 50% of growth or 50% of the strains tested, depending on the study. In general, MIC90 refers to the lowest concentration that inhibits either 90% of growth or 90% of the strains tested, depending on the study.
